Common to all, as to experiment: DTP human tumour cell line panel, 48 h
The test system of assay [1] is MDA-MB-231.
In assay [2] the test system is T47D.
Assay [3] has as its system OVCAR-3.
Assay [4] deals with HOP-62.
For assay [5], the system named is EKVX.
Assay [6] relates to HCT-116.
Assay [7] relates to UO-31.
Assay [8] has as its system SNB-19.
In assay [9] the test system is NCI/ADR-RES.
Assay [10] deals with MOLT-4.
Assay [11] has as its system IGROV-1.
Assay [12] concerns OVCAR-5.
Assay [13] concerns M14.
In assay [14] the test system is HCT-15.
Assay [15] concerns PC-3.
The test system of assay [16] is BT-549.
Assay [17] relates to NCI-H522.
The test system of assay [18] is ACHN.
For assay [19], the system named is OVCAR-4.
Assay [20] concerns UACC-257.

Values joined by “and” are separate entries in the source; they are usually repeats but may differ in a detail not shown here. Identical values can stand only once.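 A five-concentration, 48-hour dose response in 96-well plates underlies each endpoint, interpolated linearly between surrounding concentrations. GI50 = concentration required for 50% inhibition of growth.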 Active and inactive are the calls of the source. No stated cut-off is given here; in the data, active = GI50 up to about 1.1 µM and inactive = higher.

Regarding `CC(C)OP(=O)(CCCCCCCCC/C=C/c1ccc2c(c1)OCCOCCOCCOCCO2)OC(C)C`, the GI50 in [1] was 2.85 µM (inactive); in assay [2] it was 2.79 µM (inactive); in [3] it was 2.61 µM (inactive); in assay [4] it was 2.42 µM (inactive); in assay [5], 3.79 µM (inactive); in [6], 3.38 µM (inactive). In addition, the GI50 was 2.72 µM (inactive) in [7]; 3.41 µM (inactive) in [8]; 2.98 µM (inactive) in assay [9]; 3.04 µM (inactive) in assay [10]; 4.46 µM (inactive) in assay [11]; 3.42 µM (inactive) in assay [12]. Further, the GI50 in assay [13] is 3.52 µM (inactive); in assay [14], 2.46 µM; in [15] it was 2.84 µM (inactive); in assay [16] it was 3.03 µM (inactive); in assay [17], 2.76 µM (inactive); in assay [18], 3.48 µM (inactive). The GI50 in [19] was 4.8 µM (inactive); in assay [20], 2.88 µM (inactive).
Turning to `COc1ccc(/C=C2\CCCC(CN(C)C)C2=O)cc1` (stereo not given), the GI50 was 3.03 µM (inactive) in assay [1]; 2.17 µM (inactive) in assay [2]; 1.94 µM (inactive) in assay [3]; 17.5 µM (inactive) in [4]; 10.2 µM (inactive) in [5]; 1.63 µM (inactive) in assay [6]. In addition, the GI50 in assay [7] is 3.63 µM (inactive); in assay [8], 7.36 µM (inactive); in [9], 2.63 µM (inactive); in [10] it was 0.774 µM (active); in assay [11], 2.69 µM (inactive); in assay [12], 9.08 µM (inactive). Moreover, the GI50 in assay [13] is 1.72 µM (inactive); in assay [14], 1.24 µM; in assay [15], 5.74 µM (inactive); in assay [16] it was 1.92 µM (inactive); in assay [17] it was 1.37 µM (inactive); in assay [18], 2.29 µM (inactive). The GI50 in assay [19] was 1.76 µM (inactive); in assay [20], 3.26 µM (inactive).
With `O=C(/C=C/c1ccccc1)c1ccccc1` [CHALCONE], the GI50 in assay [1] was > 10 µM (inactive); in assay [2], > 10 µM (inactive); in [3], > 10 µM (inactive); in [4], > 10 µM (inactive); in [5], > 10 µM (inactive); in assay [6] it was 2.01 µM (inactive). The GI50 in [7] was > 10 µM (inactive); in assay [8] it was > 10 µM (inactive); in assay [9], > 10 µM (inactive); in assay [10], 0.938 µM (active); in [11], > 10 µM (inactive); in assay [12], > 10 µM (inactive). In addition, the GI50 in assay [13] was > 10 µM (inactive); in assay [14], over 10 µM; in assay [15] it was > 10 µM (inactive); in [16], > 10 µM (inactive); in assay [17], > 10 µM (inactive); in assay [18], > 10 µM (inactive). Besides, the GI50 in [19] and in assay [20] was > 10 µM (inactive) throughout.
Turning to `COC(=O)C1=C(O)C(C(=O)OC)[C@@]2(O)[C@@H](C(=O)OC)C(c3ccc(OC(=O)/C(=C/c4ccccc4)c4ccccc4)cc3)C[C@@H]1[C@@H]2C(=O)OC` (stereo not given in full), the GI50 in assay [1] was 23.9 µM (inactive); in assay [2] it was > 100 µM (inactive); in assay [3], 35.6 µM (inactive); in assay [4], > 100 µM (inactive); in [5] it was 64.6 µM (inactive); in [6] it was 5 µM (inactive). Further, the GI50 in assay [7] was 10.9 µM (inactive); in assay [8], 30 µM (inactive); in [9] it was 44.2 µM (inactive); in assay [10], 3.72 µM (inactive); in assay [11] it was 19 µM (inactive); in assay [12], 80.4 µM (inactive). Besides, the GI50 in assay [13] was 7.03 µM (inactive); in [14], 7.18 µM; in assay [15], 32.5 µM (inactive); in assay [16], > 100 µM (inactive); in assay [17], 13.3 µM (inactive); in assay [18] it was 19.7 µM (inactive). Also, the GI50 in [19] is 16.9 µM (inactive); in assay [20] it was 18.9 µM (inactive).
With `COc1cc([C@H]2OC[C@H]3[C@@H]2CO[C@@H]3c2cc(OC)c3c(c2)OCO3)cc(OC)c1OC`, the GI50 in assay [1] is > 100 µM (inactive) and 50.4 µM (inactive); in assay [2] it was 34.2 µM (inactive) and 37.9 µM (inactive); in assay [3], 87.1 µM (inactive); in assay [4], 55.6 µM (inactive); in assay [5], 39.4 µM (inactive) and 40.9 µM (inactive); in [6], 41.6 µM (inactive) and 70.3 µM (inactive). In addition, the GI50 in assay [7] is 44.6 µM (inactive) and 38.3 µM (inactive); in assay [8] it was 53.6 µM (inactive) and 43.8 µM (inactive); in assay [9] it was 23.4 µM (inactive) and 33.3 µM (inactive); in assay [10], 12.9 µM (inactive) and > 10 µM (inactive); in assay [11] it was 92.3 µM (inactive) and 66.4 µM (inactive); in assay [12] it was > 100 µM (inactive). Also, the GI50 was 65.3 µM (inactive) in assay [13]; 34.4 µM and 39.8 µM in assay [14]; 46.1 µM (inactive) and 51.6 µM (inactive) in [15]; 31.6 µM (inactive) and 52.1 µM (inactive) in [16]; 32.7 µM (inactive) and 20.7 µM (inactive) in [17]; 39.1 µM (inactive) in [18]. Also, the GI50 in assay [19] was 48.5 µM (inactive) and 43.7 µM (inactive); in [20], 79.4 µM (inactive) and 50.2 µM (inactive).
Take `CC1CN1C(=O)NCCCCCCNC(=O)N1CC1C` (stereo not given): the GI50 in assay [1] is > 100 µM (inactive); in [2] it was > 73.1 µM (inactive); in assay [3], > 100 µM (inactive); in [4], 30.2 µM (inactive); in [5], > 100 µM (inactive); in assay [6], 81.3 µM (inactive). The GI50 in assay [7] is 79.4 µM (inactive); in assay [8] it was > 86.7 µM (inactive); in assay [9] it was 78.7 µM (inactive); in assay [10] it was 15.5 µM (inactive); in assay [11], > 100 µM (inactive); in assay [12], > 100 µM (inactive). Also, the GI50 was 68.2 µM (inactive) in assay [13]; over 100 µM in assay [14]; > 100 µM (inactive) in assay [15]; > 100 µM (inactive) in assay [16]; > 100 µM (inactive) in [17]; 9.53 µM (inactive) in assay [18]. The GI50 in [19] and in [20] was > 100 µM (inactive) throughout.
Take `Cc1c(C#N)c2nnn(-c3ccc(Cl)cc3)c(=O)n2c1-c1ccccc1`: the GI50 was 0.102 µM (active) in assay [1]; 6.58 µM (inactive) in assay [2]; 0.047 µM (active) in assay [3]; 0.108 µM (active) in assay [4]; 0.237 µM (active) in assay [5]; 0.0649 µM (active) in [6]. Further, the GI50 in assay [7] is 3.29 µM (inactive); in assay [8], 0.195 µM (active); in assay [9], 0.0693 µM (active); in assay [10], 0.063 µM (active); in assay [11] it was 0.113 µM (active); in assay [12], 0.247 µM (active). The GI50 in [13] was 0.0608 µM (active); in assay [14], 0.0628 µM; in [15] it was 0.0459 µM (active); in [16] it was 0.37 µM (active); in assay [17], 0.0586 µM (active); in assay [18], 0.929 µM (active). Also, the GI50 in assay [19] is 0.351 µM (active); in assay [20], 3.15 µM (inactive).
As for `CN(O)C(=O)c1ccc(OCc2cccc(Cl)c2)cc1`, the GI50 in assay [1] was > 81.1 µM (inactive); in assay [2], 43.1 µM (inactive); in assay [3] it was 19.2 µM (inactive); in assay [4], 16.7 µM (inactive); in assay [5] it was 30.3 µM (inactive); in [6] it was 8.45 µM (inactive). Further, the GI50 is 16.9 µM (inactive) in [7]; 24.6 µM (inactive) in assay [8]; 13.7 µM (inactive) in assay [9]; 9.64 µM (inactive) in assay [10]; 16.7 µM (inactive) in assay [11]; > 62.1 µM (inactive) in assay [12]. Also, the GI50 in [13] is 16.7 µM (inactive); in assay [14], 3.52 µM; in [15], 24.5 µM (inactive); in [16] it was 22.8 µM (inactive); in assay [17] it was 13.1 µM (inactive); in [18], 8.51 µM (inactive). The GI50 in [19] is 21.6 µM (inactive); in [20] it was 38.2 µM (inactive).
Turning to `COc1ccc(C2C(C=O)C(N3CCN(C)CC3)=Nc3nc4ccccc4n32)cc1` (stereo not given), the GI50 in [1] is 12.1 µM (inactive); in assay [2], 11.7 µM (inactive); in [3] it was 14.3 µM (inactive); in assay [4], 12.2 µM (inactive); in [5] it was 27.7 µM (inactive); in assay [6], 14.6 µM (inactive). For the same compound, the GI50 in [7] is 14.4 µM (inactive); in assay [8], 15.3 µM (inactive); in [9], 17.4 µM (inactive); in assay [10], < 0.01 µM (active); in assay [11], 16.3 µM (inactive); in assay [12] it was 23.3 µM (inactive). Besides, the GI50 is 17.4 µM (inactive) in assay [13]; 17.8 µM in [14]; 16.3 µM (inactive) in assay [15]; 14 µM (inactive) in [16]; 13 µM (inactive) in assay [17]; 18.2 µM (inactive) in assay [18]. Moreover, the GI50 in [19] was 8.18 µM (inactive); in assay [20], 16.6 µM (inactive).

Broadly, the GI50 is the concentration at which growth is held to half of that of the control.

For the origin of these results see ChEMBL document CHEMBL1201862, “PubChem BioAssay data set” (2004).
